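Grown in 96-well plates, cells were treated for 48 hours with each compound at five concentrations. Insufficient inhibition: endpoint recorded as highest concentration tested. Abbreviation: GI50, concentration required for 50% inhibition of growth. TGI denotes the concentration required for complete inhibition of growth.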
Tests used:
Assay in all cases: growth of human tumour cells (NCI), 48 h; in the data active = GI50 below about 0.43 µM; inactive = the rest
[1] = test system: M14 melanoma
[2] = test system: TK-10 renal
[3] = test system: HOP-62 NSCLC
[4] = test system: U251 CNS
[5] = test system: BT-549 breast
[6] = test system: SN12C renal
[7] = test system: OVCAR-4 ovarian
[8] = test system: HOP-92 NSCLC
[9] = test system: HCC-2998 colon
[10] = test system: MDA-MB-435
[11] = test system: PC-3 prostate
[12] = test system: ACHN renal
[13] = test system: SNB-19 CNS
[14] = test system: MDA-MB-231 breast
[15] = test system: CCRF-CEM leukemia
[16] = test system: HT29 colon
[17] = test system: T-47D breast
[18] = test system: NCI-H522 lung
[19] = test system: OVCAR-3 ovarian
[20] = test system: SW-620 colon
[21] = test system: 786-0 renal
[22] = test system: NCI-H226 lung
[23] = test system: UACC-257 melanoma
[24] = test system: SK-MEL-2 melanoma
[25] = test system: KM12 colon
[26] = test system: SF-268 CNS
[27] = test system: MCF7 breast
[28] = test system: MALME-3M melanoma
[29] = test system: RXF 393 renal
[30] = test system: MOLT-4 leukemia
[31] = test system: NCI/ADR-RES ovarian
[32] = test system: SF-539 CNS
[33] = test system: A498 renal
[34] = test system: LOX IMVI melanoma
[35] = test system: HS 578T breast
[36] = test system: SK-MEL-28 melanoma
[37] = test system: UO-31 renal
[38] = test system: UACC-62 melanoma
[39] = test system: OVCAR-8 ovarian
[40] = test system: CAKI-1 renal
[41] = test system: HCT-15 colon
[42] = test system: HCT-116 colon
[43] = test system: IGROV1 ovarian
[44] = test system: HL-60(TB) leukemia
[45] = test system: DU-145 prostate
[46] = test system: OVCAR-5 ovarian
[47] = test system: SR leukemia
[48] = test system: NCI-H23 lung
[49] = test system: SNB-75 CNS
[50] = test system: NCI-H460 lung
[51] = test system: SK-OV-3 ovarian
[52] = test system: A549 NSCLC
[53] = test system: K-562 leukemia
[54] = test system: COLO 205 colon
[55] = test system: SK-MEL-5 melanoma
[56] = test system: SF-295 CNS

Clc1ccc2nc(Cl)c3ccccc3c2c1
40.2 µM: TGI [13]
60.8 µM: TGI [21] | TGI [24]
38.1 µM: TGI [37]
29.7 µM: TGI [8]
8.16 µM: TGI [49]
30.4 µM: TGI [29]
inactive: GI50 [1] > 100 µM | GI50 [2] 4.96 µM | GI50 [3] 11.5 µM | GI50 [4] 3.21 µM | GI50 [5] 36.1 µM | GI50 [6] 28 µM | GI50 [7] 2.03 µM | GI50 [8] 11.9 µM | GI50 [9] > 100 µM | GI50 [10] 23.6 µM | GI50 [11] > 100 µM | GI50 [12] 4.04 µM | GI50 [13] 9.26 µM | GI50 [14] 7.27 µM | GI50 [15] 20.6 µM | GI50 [16] 19.9 µM | GI50 [17] 4.02 µM | GI50 [18] 63.4 µM | GI50 [19] 24.7 µM | GI50 [20] > 100 µM | GI50 [21] 9.32 µM | GI50 [22] 14 µM | GI50 [23] > 100 µM | GI50 [24] 24.3 µM | GI50 [25] 15.4 µM | GI50 [26] 17.2 µM | GI50 [27] 96 µM | GI50 [28] 10.7 µM | GI50 [29] 9.15 µM | GI50 [30] > 100 µM | GI50 [31] 17.8 µM | GI50 [32] 12 µM | GI50 [33] 2.22 µM | GI50 [34] 20.9 µM | GI50 [35] 8.21 µM | GI50 [36] > 100 µM | GI50 [37] 3.82 µM | GI50 [38] 44.1 µM | GI50 [39] 11.8 µM | GI50 [40] > 100 µM | GI50 [41] > 100 µM | GI50 [42] 4.34 µM | GI50 [43] 6.21 µM | GI50 [44] > 100 µM | GI50 [45] 58.5 µM | GI50 [46] 22.1 µM | GI50 [47] 22 µM | GI50 [48] 74.9 µM | GI50 [49] 2.09 µM | GI50 [50] 3.29 µM | GI50 [51] 5.17 µM | GI50 [52] 5.92 µM | GI50 [53] > 100 µM | GI50 [54] 46.8 µM | GI50 [55] > 100 µM | GI50 [56] 10.5 µM
71.1 µM: TGI [28]
86.8 µM: TGI [43]
31.8 µM: TGI [2]
5.02 µM: TGI [7]
52.9 µM: TGI [15]
9.85 µM: TGI [33]
72 µM: TGI [35]
22.1 µM: TGI [42]
42 µM: TGI [32]
64.2 µM: TGI [3]
19.9 µM: TGI [4]
> 100 µM: TGI [1] | TGI [5] | TGI [6] | TGI [9] | TGI [10] | TGI [11] | TGI [12] | TGI [16] | TGI [17] | TGI [18] | TGI [19] | TGI [20] | TGI [22] | TGI [23] | TGI [25] | TGI [26] | TGI [27] | TGI [30] | TGI [31] | TGI [34] | TGI [36] | TGI [38] | TGI [39] | TGI [40] | TGI [41] | TGI [44] | TGI [45] | TGI [46] | TGI [47] | TGI [48] | TGI [52] | TGI [53] | TGI [54] | TGI [55]
11.8 µM: TGI [50]
33.2 µM: TGI [14]
35.7 µM: TGI [56]
21.2 µM: TGI [51]
